Assays:
Test in all cases: combination Emax (second highest fraction inhibited in the dose matrix, 72 h); higher = more inhibition; extreme values may be limits of the assay
[1] = test system: HCT-15 (Colorectal Carcinoma)
Procedure, shortened: (§1)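 Cell lines in DMEM/F12 or RPMI with 10% FBS were plated in 1536-well plates, held 24 hours at 37°C, 5% CO2, then given two-drug dose matrices for 72 hours (DMSO typically 0.2%). Viability was read by CellTiter-Glo 2.0 luminescence and scaled as inhibition from 0 (vehicle wells) to 1 (blank wells). Combination Emax is the second-highest inhibition in the matrix; Bliss excess is observed combination effect minus expected EA + EB − EA·EB, EA and EB being single-agent effects.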

[2] = test system: LB996-RCC (Kidney Carcinoma)
Procedure, shortened: as §1

[3] = test system: L-1236 (Hodgkin's Lymphoma)
Procedure, shortened: as §1

[4] = test system: HEC-1 (Endometrial Carcinoma)
Procedure, shortened: as §1

SF268 (Low Grade Glioma) = test system: SF268 (Low Grade Glioma)
Procedure, shortened: as §1

[5] = test system: RCM-1 (Colorectal Carcinoma)
Procedure, shortened: as §1

[6] = test system: NCI-H2342 (Lung Adenocarcinoma)
Procedure, shortened: as §1

[7] = test system: LXF-289 (Lung Adenocarcinoma)
Procedure, shortened: as §1

[8] = test system: NCI-H446 (Small Cell Lung Carcinoma)
Procedure, shortened: as §1

[9] = test system: PC-3_[JPC-3] (Lung Adenocarcinoma)
Procedure, shortened: as §1

[10] = test system: RERF-GC-1B (Gastric Carcinoma)
Procedure, shortened: as §1

[11] = test system: PSN1 (Pancreatic Carcinoma)
Procedure, shortened: as §1

[12] = test system: KE-37 (T-Lymphoblastic Leukemia)
Procedure, shortened: as §1

[13] = test system: SK-PN-DW (Other Solid Carcinomas)
Procedure, shortened: as §1

[14] = test system: VAL (B-Cell Non-Hodgkin's Lymphoma)
Procedure, shortened: as §1

[15] = test system: GP5d (Colorectal Carcinoma)
Procedure, shortened: as §1

LN-229 (Glioblastoma) = test system: LN-229 (Glioblastoma)
Procedure, shortened: as §1

[16] = test system: OPM-2 (Plasma Cell Myeloma)
Procedure, shortened: as §1

[17] = test system: HSC-39 (Gastric Carcinoma)
Procedure, shortened: as §1

[18] = test system: FADU (Head and Neck Carcinoma)
Procedure, shortened: as §1

Structure (SMILES)	combination Emax [1]	combination Emax [2]	combination Emax [3]	combination Emax [4]	combination Emax (SF268 (Low Grade Glioma))	combination Emax [5]	combination Emax [6]	combination Emax [7]	combination Emax [8]	combination Emax [9]	combination Emax [10]	combination Emax [11]	combination Emax [12]	combination Emax [13]	combination Emax [14]	combination Emax [15]	combination Emax (LN-229 (Glioblastoma))	combination Emax [16]	combination Emax [17]	combination Emax [18]
CCN(CCO)CCCOc1ccc2c(Nc3cc(CC(=O)Nc4cccc(F)c4)[nH]n3)ncnc2c1 [AZD2811] + C[C@@H]1COCCN1C2=NC(=NC(=C2)C3(CC3)[S@](=N)(=O)C)C4=C5C=CNC5=NC=C4 [AZD6738] (first compound max 1 µM, 7x7, partner max 10 µM)	0.805	0.602	0.595	0.212	0.381	0.828	0.213	0.516	0.869	0.304	0.439	0.397	1	0.947	0.877	0.845	0.562	0.71	1	0.654
CCN(CCO)CCCOc1ccc2c(Nc3cc(CC(=O)Nc4cccc(F)c4)[nH]n3)ncnc2c1 [AZD2811] + O=C(c1cc(Cc2n[nH]c(=O)c3ccccc23)ccc1F)N1CCN(C(=O)C2CC2)CC1 [Olaparib] (first compound max 1 µM, 7x7, partner max 10 µM)	0.12	0.315	0.158	0.0832	0.178	0.247	0.166	0.555	0.81	0.205	0.316	0.251	0.998	0.689	0.831	0.516	0.167	0.363	0.985	0.299
CN(CCO)CC[C@H](CSc1ccccc1)Nc1ccc(S(=O)(=O)NC(=O)c2ccc(N3CCC([C@@H](O)c4ccccc4-c4ccc(Cl)cc4)CC3)cc2)cc1S(=O)(=O)C(F)(F)F [AZD4320] + C1CN(CCC1(C(=O)N[C@@H](CCO)C2=CC=C(C=C2)Cl)N)C3=NC=NC4=C3C=CN4 [Capivasertib] (first compound max 1 µM, 7x7, partner max 3 µM)	0.174	0.494	0.965	0.295	0.211	0.343	0.3	0.173	0.78	0.152	0.496	0.276	1	0.482	1	0.72	0	0.955	0.328	0.116
CN(CCO)CC[C@H](CSc1ccccc1)Nc1ccc(S(=O)(=O)NC(=O)c2ccc(N3CCC([C@@H](O)c4ccccc4-c4ccc(Cl)cc4)CC3)cc2)cc1S(=O)(=O)C(F)(F)F [AZD4320] + C=CCn1c(=O)c2cnc(Nc3ccc(N4CCN(C)CC4)cc3)nc2n1-c1cccc(C(C)(C)O)n1 [AZD1775] (first compound max 1 µM, partner max 1 µM)	0.456	0.978	1	0.456	0.587	0.717	0.38	0.638	0.963	0.411	0.962	0.592	1	0.898	1	0.782	0.428	0.955	0.958	0.453
CN(CCO)CC[C@H](CSc1ccccc1)Nc1ccc(S(=O)(=O)NC(=O)c2ccc(N3CCC([C@@H](O)c4ccccc4-c4ccc(Cl)cc4)CC3)cc2)cc1S(=O)(=O)C(F)(F)F [AZD4320] + CCN(CCO)CCCOc1ccc2c(Nc3cc(CC(=O)Nc4cccc(F)c4)[nH]n3)ncnc2c1 [AZD2811] (first compound max 1 µM, 7x7, partner max 1 µM)	0.135	0.485	0.961	0.494	0.519	0.545	0.384	0.471	0.991	0.147	0.568	0.349	1	0.719	1	0.566	0.185	0.693	0.966	0.245
